# Laboratory results as given in patent US6794491B1, “Polypeptides, their production and use” (Takeda Chemical Industries, Ltd., priority 1995, dated 2004).
# Where no end group is shown, it is not given here.
# Key:
# [1] = blood pressure after injection into the area postrema of medula oblongata; type: in vivo, male Wistar rats; conditions: 10 nmol into the area postrema of medula oblongata, conscious rats
# Method: The inventors explored the influence of injection of 19P2-L31 into the area postrema of medula oblongata on blood pressure. Mature male Wistar rats (body weights at operation: ca 300 g) were anesthetized with pentobarbital 50 mg/kg i.p. and each animal was immobilized in a rat brain stereotaxic apparatus. The incisor bar was lowered by 3.3 mm from the interaural line. The skull was exposed, and using a dental drill a hole was made on the skull for implantation of a guide cannula. In addition, anchor screws were buried in two positions around the drilled hole. A stainless-steel guide cannula, AG-12 (0.4 mm inside dia., 0.5 mm out. dia., EICOM), was inserted in such a manner that its leading end would be situated in the upper part of the area postrema. […] With reference to the atlas of Paxinos and Watson (1986), the stereotaxic coordinates were AP: −6.0 mm (from interaural line), L: 0.0 mm, and H: +1.5 mm (from interaural line). […]
# After waiting overnight postoperatively, the polyethylene tube was connected to a transducer (Spectramed) and the blood pressure was measured. After blood pressure readings became steady, the cap nut and dummy cannula were removed from the rat skull and, instead, a stainless steel microinjection cannula (0.17 mm in. dia., 0.35 mm out. dia., EICOM) connected to a Teflon tube (50 cm long, 0.1 mm in. dia., 0.4 mm out. dia., EICOM) was inserted. […]
# [2] = plasma pituitary hormone level after administration into the third ventricle, pentobarbital anesthesia; type: in vivo, male Wistar rats
# Method: The inventors explored the effect of 19P2-L31 administered into the third ventricle on pituitary hormone levels in the plasma. Mature male Wistar rats (body weights at operation: 290-350 g) were anesthetized with pentobarbital, 50 mg/kg i.p., and each immobilized in a rat brain stereotaxic apparatus. The incisor bar was set 3.3 mm lower from the interaural line. The skull was exposed, and using a dental drill a hole was made on the bone for implantation of a guide cannula. In addition, an anchor screw was buried in one position around the hole. A stainless-steel guide cannula, AG-12 (0.4 mm in. dia., 0.5 mm out. dia., EICOM), was inserted in such a manner that its tip would be situated in the upper part of the third ventricle. With reference to the atlas of Paxinos and Watson (1986), the stereotaxic coordinates were AP: +7.2 mm (from interaural line), L: 0.0 mm, and H: +2.0 mm (from interaural line). The guide cannula was secured to the skull using an instant adhesive, a dental cement, and an anchor piece. A stainless-steel dummy cannula, AD-12 (0.35 mm out. dia., EICOM), was then passed through the guide cannula and locked in position with a cap nut (EICOM). After the operation the rats were housed in individual cages and kept for at least 3 days for recuperation before starting the experiment.
# The operated rat was anesthetized with pentobarbital 50 mg/kg i.p. and immobilized in dorsal position. After the bilateral jugular veins were exposed, 400 μl of blood was drawn using a 1 ml tuberculin syringe and a 24-G needle (both by Termo). To prevent clotting, the syringe was filled with 20 μl of saline containing 200 U/ml of heparin beforehand. The cap nut and dummy cannula were removed from the rat skull and, instead, a stainless steel microinjection cannula (0.17 mm in. dia., 0.35 mm out. dia., EICOM) connected to Teflon tube (50 cm long, 0.1 mm in. dia., 0.4 mm out. dia., EICOM) was inserted. The length of the microinjection cannula was adjusted beforehand so that its tip would be emergent from the guide cannula by 1 mm. One end of the Teflon tube was connected to a microsyringe pump and either PBS or 19P2-L31 dissolved in PBS was injected, in a total volume of 10 μl, into the third ventricle at a flow rate of 2.5 μl/min. After a standby time of 1 minute following infusion, the microinjection cannula was disconnected and the dummy cannula was reinstated and locked in position with a cap nut. Immediately before initiation of intraventricular administration and 10, 20, 30, 40, and 60 minutes after initiation of administration, 400 μl portions of blood were drawn from the jugular vein. Each blood sample was centrifuged (5,000 rpm, 10 min.) with a high-speed refrigerated microcentrifuge (MR-150, Tommy Seiko) and the supernatant (plasma) was recovered. The amounts of pituitary hormones [prolactin, luteinizing hormone (LH), adrenocorticotropic hormone (ACTH), thyroid-stimulating hormone (TSH), and growth hormone (GH)] in the plasma were respectively determined by radioimmunoassays.
# The results were expressed as a mean±S.E.M. To test for significant difference between the group treated with 19P2-L31 dissolved in PBS and the control group treated with PBS alone, Student's t-test was used. According to the two-tailed test, p<0.05 was assumed to be the minimal level of significance.
# [3] = 50 nmol into the third ventricle, anesthetized rats
substance,measurement,setting,value
"Ser-Arg-Ala-His-Gln-His-Ser-Met-Glu-Ile-Arg-Thr-Pro-Asp-Ile-Asn-Pro-Ala-Trp-Tyr-Ala-Gly-Arg-Gly-Ile-Arg-Pro-Val-Gly-Arg-Phe-NH2 (SRAHQHSMEIRTPDINPAWYAGRGIRPVGRF-NH2) [19P2-L31, synthetic ligand polypeptide]",blood pressure,[1],caused an elevation of blood pressure
same,plasma ACTH,[2]; [3],none showed significant changes
same,plasma LH,[2]; [3],none showed significant changes
same,plasma TSH,[2]; [3],none showed significant changes
same,plasma prolactin,[2]; [3],none showed significant changes
same,plasma GH level,"[2]; 50 nmol into the third ventricle, anesthetized rats, 10, 30, and 40 minutes after administration, not statistically significant",Tendencies toward decrease
same,plasma GH level,"[2]; 50 nmol into the third ventricle, anesthetized rats, 20 minutes after administration, versus control",significantly decreased
same,plasma GH level,"[2]; 50 nmol into the third ventricle, anesthetized rats, 60 minutes after administration",no difference from the control group
same,plasma growth hormone level,"[2]; injected into the third ventricle of rats, summary",depressed
